In article PMC11202169, “A Novel Fluorescence-Based Microplate Assay for High-Throughput Screening of hSULT1As Inhibitors” (Biosensors, 2024):
Values joined by “and” are separate entries in the source; they are usually repeats but may differ in a detail not shown here. Equal entries are not always repeated. Where two headings read alike, the source gives them in different places.

How the values were obtained:
Type in all cases: biochemical
[1] = target: T1, hSULT1A3 (Homo sapiens, UniProt P0DMM9); experiment: Fluorescence-based microplate inhibition assay, hSULT1A3-catalyzed HN-241 4-O-sulfation; conditions: for activity at 10 µM: read-out: Residue activity (%) hSULT1A3
T1 construct: 6-histidine tag (N); TEV site (N); made in house; host or cells: Escherichia coli BL21 (DE3), pET29a(+)
T1 sequence (P0DMM9 whole entry): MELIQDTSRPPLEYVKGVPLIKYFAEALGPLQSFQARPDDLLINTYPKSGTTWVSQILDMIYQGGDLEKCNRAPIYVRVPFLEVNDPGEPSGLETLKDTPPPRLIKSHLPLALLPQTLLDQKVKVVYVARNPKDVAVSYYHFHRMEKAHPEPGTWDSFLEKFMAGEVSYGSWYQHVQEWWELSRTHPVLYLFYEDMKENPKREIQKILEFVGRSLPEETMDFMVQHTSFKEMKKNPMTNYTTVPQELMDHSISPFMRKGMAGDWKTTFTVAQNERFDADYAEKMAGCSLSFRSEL

[2] = target: T2, hSULT1A2 (Homo sapiens, UniProt P50226); experiment: Fluorescence-based microplate inhibition assay, hSULT1A2-catalyzed HN-241 4-O-sulfation; conditions: for remaining activity at 10 µM: 0.25 h, read-out: Residue activity (%) hSULT1A2
T2 construct: 6-histidine tag (N); TEV site (N); made in house; host or cells: Escherichia coli BL21 (DE3), pET29a(+)
T2 sequence (P50226 whole entry): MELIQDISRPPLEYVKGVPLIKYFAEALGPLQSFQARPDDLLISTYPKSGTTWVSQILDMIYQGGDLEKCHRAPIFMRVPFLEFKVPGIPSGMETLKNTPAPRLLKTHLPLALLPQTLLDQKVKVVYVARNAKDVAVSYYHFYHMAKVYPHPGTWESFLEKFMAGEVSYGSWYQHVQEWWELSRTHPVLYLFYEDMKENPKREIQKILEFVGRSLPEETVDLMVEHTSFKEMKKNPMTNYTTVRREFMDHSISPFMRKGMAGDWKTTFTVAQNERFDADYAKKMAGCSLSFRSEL

[3] = target: T3, hSULT1A1 (Homo sapiens, UniProt P50225); experiment: Fluorescence-based microplate inhibition assay, hSULT1A1-catalyzed HN-241 4-O-sulfation; conditions: for activity at 1 µM: read-out: Residue activity (%) hSULT1A1; for IC50: hSULT1A1-catalyzed HN-241 4-O-sulfation;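 as to all read-outs here: reaction started with 200 µM PAPS at 37 °C, fluorescence read continuously (Ex 350 nm, Em 450 nm), activity expressed relative to DMSO-only control without inhibitor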
T3 construct: 6-histidine tag (N); TEV site (N); made in house; host or cells: Escherichia coli BL21 (DE3), pET29a(+)
T3 sequence (P50225 whole entry): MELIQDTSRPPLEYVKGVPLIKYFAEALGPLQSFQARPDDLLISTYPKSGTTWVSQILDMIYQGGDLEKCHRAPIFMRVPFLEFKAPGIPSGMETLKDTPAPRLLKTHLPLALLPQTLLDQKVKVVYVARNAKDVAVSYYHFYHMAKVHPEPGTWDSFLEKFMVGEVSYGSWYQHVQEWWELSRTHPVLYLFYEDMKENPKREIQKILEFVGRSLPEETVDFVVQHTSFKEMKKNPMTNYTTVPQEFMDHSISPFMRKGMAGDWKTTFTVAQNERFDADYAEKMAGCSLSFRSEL

[4] = test compound 10 μM, HN-241 10 μM, 15 min
[5] = test compound 10 μM, HN-241 5 μM, 15 min
[6] = test compound 1 μM, HN-241 1 μM, 15 min
[7] = hSULT1A2-catalyzed HN-241 4-O-sulfation

Molecule	activity at 10 µM [1, 4]	remaining activity at 10 µM [2, 5]	activity at 1 µM [3, 6]	Residue activity (%) hSULT1A3 [1, 4]	Residue activity (%) hSULT1A2 [2, 5]	Residue activity (%) hSULT1A1 [3, 6]	further results
C[C@@H]1O[C@@H](OC[C@H]2O[C@@H](Oc3cc(O)c4c(c3)O[C@H](c3ccc(O)c(O)c3)CC4=O)[C@H](O)[C@@H](O)[C@@H]2O)[C@H](O)[C@H](O)[C@H]1O [Eriocitrin]	104%	111%	65.5%	–	–	–	–
O=C(/C=C/c1ccc(O[C@@H]2O[C@H](CO)[C@@H](O)[C@H](O)[C@H]2O)cc1)c1ccc(O)cc1O [Neoisoliquiritigenin]	–	–	–	108.00%	84.48%	91.36%	–
CC(C)=CCC[C@](C)(O)[C@H]1CC[C@]2(C)[C@@H]1[C@H](O)C[C@@H]1[C@@]3(C)CC[C@H](O)C(C)(C)[C@@H]3[C@@H](O[C@@H]3O[C@H](CO)[C@@H](O)[C@H](O)[C@H]3O)C[C@]12C [Ginsenoside Rh1]	100%	96.5%	114%	–	–	–	–
COc1ccc(-c2cc(=O)c3c(O)c(OC)c(O)cc3o2)cc1 [Pectolinarigenin]	1.34%	0%	1.12%	–	–	–	IC50 ([1]; hSULT1A3-catalyzed HN-241 4-O-sulfation): 4360 ± 252 nM; IC50 [2, 7]: 87.2 ± 3.16 nM; IC50 [3]: 9.52 ± 0.39 nM
CC(C)=CCc1cc(-c2oc3cc(O)cc(O)c3c(=O)c2O)ccc1O [iso-Licoflavonol]	62.1%	0.03%	3.31%	–	–	–	–
COc1ccc(-c2oc3c(CC=C(C)C)c(O[C@@H]4O[C@H](CO)[C@@H](O)[C@H](O)[C@H]4O)cc(O)c3c(=O)c2O[C@@H]2O[C@@H](C)[C@H](O)[C@@H](O)[C@H]2O[C@@H]2O[C@@H](C)[C@H](O)[C@@H](O)[C@H]2O)cc1 [Epimedin C]	–	–	–	107.48%	95.77%	108.62%	–
CC(C)=CCc1c(-c2ccc(O)cc2O)oc2c(CC=C(C)C)c(O)cc(O)c2c1=O [Mulberrin]	–	–	–	70.86%	143.65%	53.37%	–
CC(C)Oc1ccc2c(=O)c(-c3ccccc3)coc2c1 [Ipriflavone]	117%	89.5%	61.3%	–	–	–	–
CC(C)=CCC[C@@](C)(O)[C@H]1CC[C@]2(C)[C@@H]1[C@H](O)C[C@@H]1[C@@]3(C)CC[C@H](O)C(C)(C)[C@@H]3[C@@H](O[C@@H]3O[C@H](CO)[C@@H](O)[C@H](O)[C@H]3O[C@@H]3O[C@@H](C)[C@H](O)[C@@H](O)[C@H]3O)C[C@]12C [20(R)-Ginsenoside Rg2]	–	–	–	122.28%	104.32%	104.07%	–
COc1cc2c(c(O)c1OC)C(=O)c1c(cc(C)c(O)c1OC)C2=O [1,7-Dihydroxy-2,3,8-trimethoxy-6-methylanthracene-9,10-dione]	–	–	–	61.63%	0.20%	0.00%	–
O=C1C[C@@H](c2ccc(O)cc2)Oc2cc(O)ccc21 [Liquiritigenin]	–	–	–	76.68%	25.92%	58.91%	–
C[C@]12CC[C@H](O)C[C@H]1CC[C@@H]1[C@@H]2CC[C@]2(C)[C@@H](c3ccc(=O)oc3)C[C@H]3O[C@]132 [Resibufogenin]	–	–	–	–	–	–	activity at 10 µM [1]: 113%; remaining activity at 10 µM [2]: 99.2%; activity at 1 µM [3]: 127%
O=C(O)c1cc(O)c2c(c1)C(=O)c1cccc(O)c1C2=O [Rhein]	96.9%	0.83%	59.4%	–	–	–	–
COc1ccc(-c2cc(=O)c3c(O)cc(O)cc3o2)cc1 [Acacetin]	58.1%	0.47%	0.38%	–	–	–	–
CC(C)=CCC[C@](C)(O)[C@H]1CC[C@]2(C)[C@@H]1[C@H](O)C[C@@H]1[C@@]3(C)CC[C@H](O)C(C)(C)[C@@H]3[C@@H](O[C@@H]3O[C@H](CO)[C@@H](O)[C@H](O)[C@H]3O[C@@H]3O[C@@H](C)[C@H](O)[C@@H](O)[C@H]3O)C[C@]12C [Ginsenoside Rg2]	100%	106%	113%	–	–	–	–
COc1cc(O)c(CC=C(C)C)c2c1C(=O)CC(c1ccc(O)cc1)O2 (stereo not shown) [Isoxanthohumol]	88%	68.4%	15.8%	–	–	–	–
CC(C)=CCC[C@](C)(O)[C@H]1CC[C@]2(C)[C@@H]1[C@H](O)C[C@@H]1[C@@]3(C)CC[C@H](O)C(C)(C)[C@@H]3[C@@H](O[C@@H]3O[C@H](CO)[C@@H](O)[C@H](O)[C@H]3O[C@@H]3O[C@H](CO)[C@@H](O)[C@H](O)[C@H]3O)C[C@]12C [Ginsenoside Rf]	104%	104%	102%	–	–	–	–
C[C@H]1C(=O)O[C@@H]2CCN3CC=C(COC(=O)[C@](C)(O)[C@]1(C)O)[C@H]23 [Crotaline]	–	–	–	122.18%	97.30%	128.03%	–
COc1cc(O)cc2c1C(=O)C[C@@H](c1ccccc1)O2 [Alpinetin]	115%	49.5%	69.8%	–	–	–	–
CC(C)=CCOc1c2occc2cc2ccc(=O)oc12 [Imperatorin]	128%	94.3%	101%	–	–	–	–

Molecule	activity at 10 µM [1, 4]	remaining activity at 10 µM [2, 5]	activity at 1 µM [3, 6]	Residue activity (%) hSULT1A3 [1, 4]	Residue activity (%) hSULT1A2 [2, 5]	Residue activity (%) hSULT1A1 [3, 6]	further results
CC(C)[C@]12O[C@H]1[C@@H]1O[C@]13[C@]1(O[C@H]1C[C@H]1C4=C(CC[C@@]13C)C(=O)OC4)[C@@H]2O [Triptolide]	110%	119%	109%	–	–	–	–
O=C1CCC[C@@H]2[C@H]3CCC[N@+]4([O-])CCC[C@@H](CN12)[C@@H]34 [Ammothamnine]	–	–	–	100.34%	96.56%	99.18%	–
C=C(CCC=C(C)C)[C@H]1CC[C@]2(C)[C@@H]1[C@H](O)C[C@@H]1[C@@]3(C)CC[C@H](O[C@@H]4O[C@H](CO)[C@@H](O)[C@H](O)[C@H]4O)C(C)(C)[C@@H]3CC[C@]12C [Ginsenoside Rk2]	–	–	–	94.83%	106.88%	97.02%	–
Oc1cc(O)c2c(c1)O[C@@H](c1ccc(O)c(O)c1)[C@H](O)C2 [(-)-Catechin]	46.8%	101%	41.4%	–	–	–	–
Sennosides	–	–	–	19.21%	3.06%	26.92%	–
Cc1cc(O)c2c(c1)C(=O)c1cc(O)cc(O)c1C2=O [Emodin]	65%	0%	0%	–	–	–	IC50 [2, 7]: 360 ± 22.6 nM; IC50 [3]: 76.5 ± 5.28 nM
COc1cc2c(c(OC)c1OC)-c1c(cc(OC)c(OC)c1OC)C[C@](C)(O)[C@@H](C)C2 [Schisandrin]	–	–	–	123.25%	102.92%	129.29%	–
O=c1c(O)c(-c2ccc(O)c(O)c2)oc2cc(O)cc(O)c12 [Quercetin, reference compound]	39.9%	0.1%	0%	–	–	–	–
COC1=C[C@@H]2[C@@H]3Cc4ccc(OC)c(O)c4[C@]2(CCN3C)CC1=O [Sinomenine]	110%	103%	103%	–	–	–	–
CCCCCCCCCCCCCCCC(=O)O [Palmitic acid]	113%	84.8%	93.1%	–	–	–	–
COc1ccc(-c2cc(=O)c3c(O)cc(O)cc3o2)cc1O [Diosmetin]	39.1%	57%	0%	–	–	–	–
COc1cc(O)cc(O)c1C(=O)/C=C/c1ccccc1 [Cardamonin]	–	–	–	120.65% and 88.76%	34.41% and 31.76%	63.24% and 71.38%	–
COc1cc(-c2oc3cc(O)cc(O)c3c(=O)c2O)ccc1O [Isorhamnetin]	58.3%	0.39%	1.36%	–	–	–	–
CC(C)=CC[C@@H](O)C1=CC(=O)c2c(O)ccc(O)c2C1=O [Shikonin]	61%	18.6%	64.5%	–	–	–	–
O=C(/C=C/C=C/c1ccccc1)CCc1ccccc1 [Alnustone]	–	–	–	111.42%	80.60%	74.39%	–
Hydroxysafflor yellow A	–	–	–	99.76%	100.46%	97.09%	–
CC(C)=CCOc1c2ccoc2cc2oc(=O)ccc12 [Isoimperatorin]	92.1%	106%	92.5%	–	–	–	–
O=c1cc(-c2ccc(O)cc2)oc2c([C@@H]3O[C@H](CO)[C@@H](O)[C@H](O)[C@H]3O)c(O)cc(O)c12 [Vitexin]	108%	115%	102%	–	–	–	–
COc1ccc(-c2cc(=O)c3c(O)cc(O)cc3o2)cc1-c1c(O)cc(O)c2c(=O)cc(-c3ccc(O)cc3)oc12 [Bilobetin]	42.3%	0%	24%	–	–	–	IC50 [2, 7]: 55.5 ± 1.3 nM; Inhibition manner ([2]; inhibition kinetic assay, hSULT1A2-catalyzed HN-241 4-O-sulfation): mixed inhibition
COC(=O)/C=C/c1ccc(O)c(O)c1 [Methyl caffeate acid]	–	–	–	44.99%	12.99%	9.01%	–
